Columns and labels:
GLP-1 receptor = molecular target: T1, GLP-1 receptor (Rattus norvegicus, UniProt P32301); test: in vitro functional assay at the GLP-1 receptor (cyclase, cAMP production in RIN m5f cell membranes); assay type: biochemical; settings: Cyclase GLP-1 Receptor EC50 (nM), Table 1; RIN m5f cell membranes, cAMP production (AlphaScreen)
T1 construct: 96-well assay plate containing RIN m5f cell membranes in an ATP/GTP mixture; endogenous in cells; host or cells: RIN m5f cell membranes
T1 sequence (P32301 22-463): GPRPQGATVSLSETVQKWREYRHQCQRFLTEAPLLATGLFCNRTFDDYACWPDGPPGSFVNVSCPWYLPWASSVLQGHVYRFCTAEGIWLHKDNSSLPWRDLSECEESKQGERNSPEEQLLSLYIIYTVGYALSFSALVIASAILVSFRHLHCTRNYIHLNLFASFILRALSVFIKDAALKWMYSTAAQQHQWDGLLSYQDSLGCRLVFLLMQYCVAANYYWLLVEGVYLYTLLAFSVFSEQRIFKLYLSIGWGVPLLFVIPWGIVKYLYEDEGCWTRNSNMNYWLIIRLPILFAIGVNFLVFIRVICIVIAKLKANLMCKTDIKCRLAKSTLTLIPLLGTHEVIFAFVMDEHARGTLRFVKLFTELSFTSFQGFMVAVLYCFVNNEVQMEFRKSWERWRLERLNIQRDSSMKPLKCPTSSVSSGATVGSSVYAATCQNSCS
Method: The compounds shown in Table 1 below were analyzed in an in vitro functional assay at the GLP-1 receptor. The assay was conducted as follows: Membrane fractions were prepared from confluent cultures of RIN m5f cells. Compounds were serially diluted with an assay buffer, and then added to a 96-well assay plate containing RIN m5f cell membranes in an ATP/GTP mixture. Cyclase activities were determined by measuring the production of cAMP induced through GLP-1 receptor activation. Quantification of cAMP production was achieved through a competitive chemiluminescence assay with a biotinylated-cAMP probe using Perkin Elmer Fusion™-Alpha Microplate Analyzer (AlphaScreen™ technology). The compound EC50 values were obtained through fitting the concentration-response curves to a four-parameter logistic equation within GraphPad PRISM® software.

NIH/Swiss female mice = test: in vivo basal glucose lowering assay; settings: subcutaneous injection
Method: Some compounds shown in Table 1 below were analyzed in an in vivo basal glucose lowering assay using the following procedure: A subcutaneous injection of either 200 μl phosphate-buffered saline (PBS) vehicle or test article was given immediately following baseline glucose (t=0) to NIH/Swiss female mice. Tail blood glucose samples were measured at t=2 and 4 hours post dose using a OneTouch® Ultra® (LifeScan, Inc., a Johnson & Johnson Company, Milpitas, Calif.). Body weight was measured daily. Significant test sample effects were identified by ANOVA (p<0.05), followed by Dunnett's post test using GraphPad Prism version 4.00 for Windows (GraphPad Software, San Diego Calif.).

[1] = Table 1, time in hours, tail blood glucose at t=2 and 4 hours post dose
[2] = Table 1, result in words (inactive / similar to GLP-1)

| SMILES | EC50 (GLP-1 receptor) [nM] | In Vivo Glucose-Lowering Assay (NIH/Swiss female mice; [1]) | In Vivo Glucose-Lowering Assay (NIH/Swiss female mice; [2]) | In Vivo Glucose-Lowering Assay (NIH/Swiss female mice; Table 1, time printed in minutes) |
| --- | --- | --- | --- | --- |
| CC[C@H](C)[C@H](NC(=O)[C@H](Cc1ccccc1)NC(=O)[C@H](CC(C)C)NC(=O)[C@H](CCCNC(=N)N)NC(=O)[C@@H](NC(=O)[C@H](C)NC(=O)[C@H](CCC(=O)O)NC(=O)[C@H](CCC(=O)O)NC(=O)[C@H](CCC(=O)O)NC(=O)[C@H](CC(C)C)NC(=O)[C@H](CCC(N)=O)NC(=O)[C@H](CCCCN)NC(=O)[C@H](CO)NC(=O)[C@H](CC(C)C)NC(=O)[C@H](CC(=O)O)NC(=O)[C@H](CO)NC(=O)[C@@H](NC(=O)[C@H](Cc1ccccc1)NC(=O)[C@@H](NC(=O)CNC(=O)[C@@H]1CCCN1C(=O)CNC(=O)[C@@H](N)Cc1c[nH]cn1)[C@@H](C)O)[C@@H](C)O)C(C)C)C(=O)N[C@@H](CCC(=O)O)C(=O)N[C@@H](Cc1ccccc1)C(=O)N[C@@H](CC(C)C)C(=O)N[C@@H](CCCCN)C(=O)N[C@@H](CC(N)=O)C(N)=O [5B] | 0.53 | more than 4 hours | – | – |
| CC[C@H](C)[C@H](NC(=O)[C@H](Cc1ccccc1)NC(=O)[C@H](CC(C)C)NC(=O)[C@H](CCCNC(=N)N)NC(=O)[C@@H](NC(=O)[C@H](C)NC(=O)[C@H](CCC(=O)O)NC(=O)[C@H](CCC(=O)O)NC(=O)[C@H](CCC(=O)O)NC(=O)[C@H](CC(C)C)NC(=O)[C@H](CCC(N)=O)NC(=O)[C@H](CCCCN)NC(=O)[C@H](CO)NC(=O)[C@H](CC(C)C)NC(=O)[C@H](CC(=O)O)NC(=O)[C@H](CO)NC(=O)[C@@H](NC(=O)[C@H](Cc1ccccc1)NC(=O)[C@@H](NC(=O)CNC(=O)C(C)(C)NC(=O)[C@@H](C)NC(=O)[C@@H](N)Cc1c[nH]cn1)[C@@H](C)O)[C@@H](C)O)C(C)C)C(=O)N[C@@H](CCC(=O)O)C(=O)N[C@@H](Cc1ccccc1)C(=O)N[C@@H](CC(C)C)C(=O)N[C@@H](CCCCN)C(=O)N[C@@H](CC(N)=O)C(N)=O [9B] | 0.03 | more than 4 hours | – | – |
| CC[C@H](C)[C@H](NC(=O)[C@H](Cc1ccccc1)NC(=O)[C@H](CC(C)C)NC(=O)[C@H](CCCNC(=N)N)NC(=O)[C@@H](NC(=O)[C@H](C)NC(=O)[C@H](CCC(=O)O)NC(=O)[C@H](CCC(=O)O)NC(=O)[C@H](CCC(=O)O)NC(=O)[C@H](CC(C)C)NC(=O)[C@H](CCC(N)=O)NC(=O)[C@H](CCCCN)NC(=O)[C@H](CO)NC(=O)[C@H](CC(C)C)NC(=O)[C@H](CC(=O)O)NC(=O)[C@H](CO)NC(=O)[C@@H](NC(=O)[C@H](Cc1ccccc1)NC(=O)[C@@H](NC(=O)CNC(=O)[C@@H]1CSCN1C(=O)[C@@H](C)NC(=O)[C@@H](N)Cc1c[nH]cn1)[C@@H](C)O)[C@@H](C)O)C(C)C)C(=O)N[C@@H](CCC(=O)O)C(=O)N[C@@H](Cc1ccccc1)C(=O)N[C@@H](CC(C)C)C(=O)N[C@@H](CCCCN)C(=O)N[C@@H](CC(N)=O)C(N)=O [9D] | 0.01 | more than 4 hours | – | – |
| CC[C@H](C)[C@H](NC(=O)[C@H](Cc1ccccc1)NC(=O)[C@H](CC(C)C)NC(=O)[C@H](CCCNC(=N)N)NC(=O)[C@@H](NC(=O)[C@H](C)NC(=O)[C@H](CCC(=O)O)NC(=O)[C@H](CCC(=O)O)NC(=O)[C@H](CCC(=O)O)NC(=O)[C@H](CC(C)C)NC(=O)[C@H](CCC(N)=O)NC(=O)[C@H](CCCCN)NC(=O)[C@H](CO)NC(=O)[C@H](CC(C)C)NC(=O)[C@H](CC(=O)O)NC(=O)[C@H](CO)NC(=O)[C@@H](NC(=O)[C@H](Cc1ccccc1)NC(=O)[C@@H](NC(=O)CNC(=O)[C@@H]1CS(=O)(=O)CN1C(=O)[C@@H](C)NC(=O)[C@@H](N)Cc1c[nH]cn1)[C@@H](C)O)[C@@H](C)O)C(C)C)C(=O)N[C@@H](CCC(=O)O)C(=O)N[C@@H](Cc1ccccc1)C(=O)N[C@@H](CC(C)C)C(=O)N[C@@H](CCCCN)C(=O)N[C@@H](CC(N)=O)C(N)=O [9F] | 0.07 | more than 4 hours | – | – |
| CC[C@H](C)[C@H](NC(=O)[C@H](Cc1ccccc1)NC(=O)[C@H](CC(C)C)NC(=O)[C@H](CCCNC(=N)N)NC(=O)[C@@H](NC(=O)[C@H](C)NC(=O)[C@H](CCC(=O)O)NC(=O)[C@H](CCC(=O)O)NC(=O)[C@H](CCC(=O)O)NC(=O)[C@H](CC(C)C)NC(=O)[C@H](CCC(N)=O)NC(=O)[C@H](CCCCN)NC(=O)[C@H](CO)NC(=O)[C@H](CC(C)C)NC(=O)[C@H](CC(=O)O)NC(=O)[C@H](CO)NC(=O)[C@@H](NC(=O)[C@H](Cc1ccccc1)NC(=O)[C@@H](NC(=O)[C@@H]1CSC2[C@H](CC(=O)O)[C@H](NC(=O)[C@H](C)NC(=O)[C@@H](N)Cc3c[nH]cn3)C(=O)N21)[C@@H](C)O)[C@@H](C)O)C(C)C)C(=O)N[C@@H](CCC(=O)O)C(=O)N[C@@H](Cc1c[nH]c2ccccc12)C(=O)N[C@@H](CC(C)C)C(=O)N[C@@H](CCCCN)C(=O)N[C@@H](CCC(N)=O)C(=O)NCC(=O)NCC(=O)N1CCC[C@H]1C(=O)N[C@@H](CO)C(=O)N[C@@H](CCCCN)C(=O)N[C@@H](CCC(=O)O)C(=O)N[C@H](C(=O)N[C@H](C(=O)N[C@@H](CO)C(=O)O)[C@@H](C)CC)[C@@H](C)CC (stereo partly shown) [16A] | 0.52 | – | inactive | – |
| CC[C@H](C)[C@H](NC(=O)[C@H](Cc1ccccc1)NC(=O)[C@H](CC(C)C)NC(=O)[C@H](CCCNC(=N)N)NC(=O)[C@@H](NC(=O)[C@H](C)NC(=O)[C@H](CCC(=O)O)NC(=O)[C@H](CCC(=O)O)NC(=O)[C@H](CCC(=O)O)NC(=O)[C@H](CC(C)C)NC(=O)[C@H](CCC(N)=O)NC(=O)[C@H](CCCCN)NC(=O)[C@H](CO)NC(=O)[C@H](CC(C)C)NC(=O)[C@H](CC(=O)O)NC(=O)[C@H](CO)NC(=O)[C@@H](NC(=O)[C@H](Cc1ccccc1)NC(=O)[C@@H](NC(=O)[C@@H]1CSC2C[C@@H](C(=O)O)[C@H](NC(=O)[C@H](C)NC(=O)[C@@H](N)Cc3c[nH]cn3)C(=O)N21)[C@@H](C)O)[C@@H](C)O)C(C)C)C(=O)N[C@@H](CCC(=O)O)C(=O)N[C@@H](Cc1c[nH]c2ccccc12)C(=O)N[C@@H](CC(C)C)C(=O)N[C@@H](CCCCN)C(=O)N[C@@H](CCC(N)=O)C(=O)NCC(=O)NCC(=O)N1CCC[C@H]1C(=O)N[C@@H](CO)C(=O)N[C@@H](CCCCN)C(=O)N[C@@H](CCC(=O)O)C(=O)N[C@H](C(=O)N[C@H](C(=O)N[C@@H](CO)C(=O)O)[C@@H](C)CC)[C@@H](C)CC (stereo partly shown) [16C] | 1.1 | – | inactive | – |
| CC[C@H](C)[C@H](NC(=O)[C@H](Cc1ccccc1)NC(=O)[C@H](CC(C)C)NC(=O)[C@H](CCCNC(=N)N)NC(=O)[C@@H](NC(=O)[C@H](C)NC(=O)[C@H](CCC(=O)O)NC(=O)[C@H](CCC(=O)O)NC(=O)[C@H](CCC(=O)O)NC(=O)[C@H](CC(C)C)NC(=O)[C@H](CCC(N)=O)NC(=O)[C@H](CCCCN)NC(=O)[C@H](CO)NC(=O)[C@H](CC(C)C)NC(=O)[C@H](CC(=O)O)NC(=O)[C@H](CO)NC(=O)[C@@H](NC(=O)[C@H](Cc1ccccc1)NC(=O)[C@@H](NC(=O)CN1C[C@H](CC(=O)O)[C@H](NC(=O)[C@H](C)NC(=O)[C@@H](N)Cc2c[nH]cn2)C1=O)[C@@H](C)O)[C@@H](C)O)C(C)C)C(=O)N[C@@H](CCC(=O)O)C(=O)N[C@@H](Cc1c[nH]c2ccccc12)C(=O)N[C@@H](CC(C)C)C(=O)N[C@@H](CCCCN)C(=O)N[C@@H](CCC(N)=O)C(=O)NCC(=O)NCC(=O)N1CCC[C@H]1C(=O)N[C@@H](CO)C(=O)N[C@@H](CCCCN)C(=O)N[C@@H](CCC(=O)O)C(=O)N[C@H](C(=O)N[C@H](C(=O)N[C@@H](CO)C(=O)O)[C@@H](C)CC)[C@@H](C)CC [16D] | 1 | – | inactive | – |
| CC[C@H](C)[C@H](NC(=O)[C@H](Cc1ccccc1)NC(=O)[C@H](CC(C)C)NC(=O)[C@H](CCCNC(=N)N)NC(=O)[C@@H](NC(=O)[C@H](C)NC(=O)[C@H](CCC(=O)O)NC(=O)[C@H](CCC(=O)O)NC(=O)[C@H](CCC(=O)O)NC(=O)[C@H](CC(C)C)NC(=O)[C@H](CCC(N)=O)NC(=O)[C@H](CCCCN)NC(=O)[C@H](CO)NC(=O)[C@H](CC(C)C)NC(=O)[C@H](CC(=O)O)NC(=O)[C@H](CO)NC(=O)[C@@H](NC(=O)[C@H](Cc1ccccc1)NC(=O)[C@@H](NC(=O)[C@H](C)N1CC[C@@H](C(=O)O)[C@H](NC(=O)[C@H](C)NC(=O)[C@@H](N)Cc2c[nH]cn2)C1=O)[C@@H](C)O)[C@@H](C)O)C(C)C)C(=O)N[C@@H](CCC(=O)O)C(=O)N[C@@H](Cc1c[nH]c2ccccc12)C(=O)N[C@@H](CC(C)C)C(=O)N[C@@H](CCCCN)C(=O)N[C@@H](CCC(N)=O)C(=O)NCC(=O)NCC(=O)N1CCC[C@H]1C(=O)N[C@@H](CO)C(=O)N[C@@H](CCCCN)C(=O)N[C@@H](CCC(=O)O)C(=O)N[C@H](C(=O)N[C@H](C(=O)N[C@@H](CO)C(=O)O)[C@@H](C)CC)[C@@H](C)CC [16F] | 0.61 | – | – | about 30 minutes |

Source: patent publication US8642544B2, “N-terminus conformationally constrained GLP-1 receptor agonist compounds” (Amylin Pharmaceuticals, LLC, priority 2009, dated 2014)
